# From patent US20020183384A1, “Methods of treating nuclear factor-kappa B mediated diseases and disorders” (priority 2001, published 2002)
# Tested on: NF-κB mediated transcription
# Test: NF-κB driven β-lactamase reporter assay in ECV-304 NF-κB.βlaZ cells (AURORA CCF2 fluorescence)
# Assay type: cell-based, human
# Settings: 10 μM compound; ECV-304 NF-κB.βlaZ cells stimulated with 10 ng/mL TNF-α or 100 pg/mL IL-1β, 6 hours at 37° C.; inhibition of maximum blue/green ratio
# Text: Introduction: Described below is an in vitro, cell-based, high throughput screening assay that reliably identifies inhibitors of NF-κB mediated transcription.
# The assay takes advantage of AURORA (Aurora Bioscience Corporation, La Jolla, Calif.) fluorescence technology. Endothelial cell vein-304 (ECV-304) cells, an endothelial-like immortalized cell type, may be stably transfected with a plasmid vector containing the cDNA for the enzyme β-lactamase (under the control of a basal promoter, Stratagene pNFκB-luc vector) and 5 copies of an human immunodeficiency virus-1 (HIV-1) NF-κB binding site. ECV-304 cells are described by Takahashi K. et al. in Spontaneous Transformation and Immobilization of Human Endothelial Cells, In Vitro Cell. Dev. Biol. 1990;25:265-274. Activation of NF-κB in ECV-304 by cytokines such as TNF-α or interleuken-1 beta (IL-1β) results in the production of β-lactamase, which cleaves a green fluorescent substrate (excitation/emission wavelengths 395 nm1530 nm) to yield a blue fluorescent product (excitation/emission wavelengths 395 nm/460 nm). Visually, the uncleaved green fluorescent substrate is sequestered intracellularly and emits green fluorescence, while the cleaved product emits blue fluorescence. Fluorescence is quantitated spectrophotometrically, and the spectral intensity of blue fluorescence versus green fluorescence can be used to calculate the degree of activation of NF-κB.
# The assay was performed as outlined here and described in detail below. ECV-304 cells permanently transfected with the NF-κB driven β-lactamase gene (ECV-304 NF-κB.βlaZ) were plated in clear-bottom, black 96-well plates (1.25×10^4 cells/well) in media-199 (M-199) media containing 2% fetal bovine serum (FBS). […] The AURORA fluorescent disclosing reagent was then added. After one additional hour, the plates were read in a fluorometer at the blue 395 nm/460 nm (excitation/emission) and green 395 nm/530 nm wavelengths. Then the blue/green emission ratio was calculated. […] An IC50 for said sulfonylaminocarbonyl derivative was determined from a dose-response curve. This assay was designed to be optionally run in either high or low throughput screening modes.
# Five copies of the HIV-1 NF-κB binding site (5′-[…]-3′) along with a TATA box were inserted into the EcorRI/BamHI sites of plasmid pMCRBlaZ to create plasmid p5×KBBlaZ, which procedure is illustrated in Scheme 1 below. [formula]
# Cells were selected for antibiotic resistance with Zeocin for approximately 2 weeks. After the stable population had been expanded to a significant number of cells, it was stimulated with IL-1β and stained with AURORA CCF2 dye, a membrane permeant, intracellularly-trapped, fluorescent substrate. Cells that fluoresced blue (indicating a positive response of the NF-κB/β-lactamase reporter to stimulation by IL-1β) in the stimulated/stained population were then sorted by flow cytometry into a pool. The pool was expanded and stained with CCF2, and then the cells that fluoresced green from this unstimulated population (indicating a low background of the NF-κB/β-lactamase reporter construct) were cloned by flow cytometry after adding 1 cell per well in 96-well plates. Clones were allowed to expand. Each cloned cell line was then examined for fold stimulation after stimulation with IL-1β using a CCF2 reporter assay, and these stimulated cells were compared to unstimulated cells.
# Cells: ECV-304 NF-κB β-Lactamase clone 1E8
# Inhibitors: Prepared stock solutions of aminosulfonyl derivatives at 10 mM concentration in DMSO;
# c) Added 10 μL of B into appropriate well in assay plate (the final concentration of drug is 10 μM), and […]
row,SMILES,Percent Inhibition at 10 μM
1,"CCCCCCCCCCN(CCCCCCCCCC)S(=O)(=O)NC(=O)Nc1c(C(C)C)cccc1C(C)C [Example 75, Urea, N-[2,6-bis (1-methylethyl)phenyl]-N′-[(didecylamino)sulfonyl]-]",<10%

# Same assay, conditions: 10 μM compound; ECV-304 NF-κB.βlaZ cells stimulated with 10 ng/mL TNF-α or 100 pg/mL IL-1β, 6 hours at 37° C.; inhibition of maximum blue/green ratio; 10 µM
row,SMILES,Percent Inhibition at 10 μM
1,"CCCCCCCCCCCCOC(=O)NS(=O)(=O)Nc1c(C(C)C)cccc1C(C)C [Example 53, Carbamic acid, [[[2,6-bis(1-methylethyl)phenyl]amino]sulfonyl]-, dodecyl ester]",61.31%

# Same assay, conditions: Homo sapiens, ECV-304, 6 h, 10 μM compound; ECV-304 NF-κB.βlaZ cells stimulated with 10 ng/mL TNF-α or 100 pg/mL IL-1β, 6 hours at 37° C.; inhibition of maximum blue/green ratio; read-out: Percent Inhibition at 10 μM
row,SMILES,inhibition at 10 µM
1,"COC(=O)NS(=O)(=O)Nc1c(C(C)C)cccc1C(C)C [Example 54, Carbamic acid, [[[2,6-bis(1-methylethyl)phenyl]amino]sulfonyl]-, methyl ester]",< 10%
2,"CCCCCCCCCCCCOC(=O)NS(=O)(=O)Oc1c(C(C)C)cccc1C(C)C [Example 55, Carbamic acid, [[2,6-bis(1-methylethyl)phenoxy]sulfonyl]-, dodecyl ester]",55.1%
3,"CCCCCCCCCCCCCCCCCCOS(=O)(=O)NC(=O)Nc1c(C(C)C)cccc1C(C)C [Example 60, Sulfamic acid, [[[2,6-bis(1-methylethyl)phenyl]amino]carbonyl]-, octadecyl ester]",< 10%
4,"CCCCCCCCCCCCOC(=O)NS(=O)(=O)OCCCCCCCCCCCC [Example 61, Carbamic acid, [(dodecyloxy)sulfonyl]-, dodecyl ester]",27.4%
5,"CC(C)c1cccc(C(C)C)c1NC(=O)NS(=O)(=O)N(C(C)C)C1CCCCC1 [Example 63, Urea, N-[2,6-bis(1-methylethyl)phenyl]-N′-[[cyclohexyl(1-methylethyl)amino]-sulfonyl]-]",23%
6,"CCCCCN(CCCCC)S(=O)(=O)NC(=O)Nc1c(C(C)C)cccc1C(C)C [Example 64, Urea, N-[2,6-bis(1-methylethyl)phenyl]-N′-[(dipentylamino)sulfonyl]-]",55.4%
7,"CC(C)CN(CC(C)C)S(=O)(=O)NC(=O)Nc1c(C(C)C)cccc1C(C)C [Example 68, Urea, N-[2,6-bis(1-methylethyl)phenyl]-N′-[[bis(2-methylpropyl)amino]-sulfonyl]-]",34.3%
8,"CCCCCCCCCCCCOS(=O)(=O)NC(=O)Nc1c(C(C)C)cccc1C(C)C [Example 69, Sulfamic acid, [[[2,6-bis(1-methylethyl)phenyl]amino]carbonyl]-, dodecyl ester]",75.5%
9,"CC(C)c1cccc(C(C)C)c1NC(=O)NS(=O)(=O)N1CCCC1 [Example 70, Urea, N-[2,6-bis(1-methylethyl)phenyl]-N′-(1-pyrrolidinylsulfonyl)-]",< 10%
10,"CC(C)c1cccc(C(C)C)c1NC(=O)NS(=O)(=O)N1CCCCC1 [Example 71, Urea, N-[2,6-bis(1-methylethyl)phenyl]-N′-(1-piperidinylsulfonyl)-]",< 10%
11,"C=CCN(CC)S(=O)(=O)NC(=O)Nc1c(C(C)C)cccc1C(C)C [Example 73, Urea, N-[2,6-bis(1-methylethyl)phenyl]-N′-[[ethyl(2-propenyl)amino]-sulfonyl]-]",< 10%
12,"CCCCCCCCCCCCN(CCCCCCCCCCCC)S(=O)(=O)NC(=O)Nc1c(C(C)C)cccc1C(C)C [Example 76, Urea, N-[2,6-bis(1-methylethyl)phenyl]-N′-[(didodecylamino)sulfonyl]-]",< 10%
13,"CCCN(CCC)S(=O)(=O)NC(=O)Nc1c(C(C)C)cccc1C(C)C [Example 77, Urea, N-[2,6-bis(1-methylethyl)phenyl]-N′-[(dipropylamino)sulfonyl]-]",< 10%
14,"CC(C)c1cccc(C(C)C)c1NC(=O)NS(=O)(=O)N(C1CCCCC1)C1CCCCC1 [Example 78, Urea, N-[2,6-bis(1-methylethyl)phenyl]-N′-[(dicyclohexylamino)-sulfonyl]-]",40.9%
15,"CCCCCCCCCCCCOC(=O)NS(=O)(=O)Nc1c(OC)cc(OC)cc1OC [Example 79, Carbamic acid, [[(2,4,6-trimethoxyphenyl)amino]sulfonyl]-, dodecyl ester]",< 10%
16,"CCCCCCCCCCCCCCCCCCN(C)S(=O)(=O)NC(=O)Nc1c(C(C)C)cccc1C(C)C [Example 80, Urea, N-[2,6-bis(1-methylethyl)phenyl]-N′-[(methyloctadecylamino)-sulfonyl]-]",< 10%
17,"C=CCN(CC=C)S(=O)(=O)NC(=O)Nc1c(C(C)C)cccc1C(C)C [Example 81, Urea, N-[2,6-bis(1-methylethyl)phenyl]-N′-[(di-2-propenylamino)-sulfonyl]-]",< 10%
18,"CC(C)c1cccc(C(C)C)c1NC(=O)NS(=O)(=O)N(C(C)C)C(C)(C)C [Example 82, Urea, N-[2,6-bis(1-methylethyl)phenyl]-N′-[[(1,1-dimethylethyl)(1-methylethyl)-amino]sulfonyl]-]",< 10%
19,"CCC(C)N(C(C)CC)S(=O)(=O)NC(=O)Nc1c(C(C)C)cccc1C(C)C (stereo not drawn) [Example 83, Urea, N-[2,6-bis(1-methylethyl)phenyl]-N′-[[bis(1-methylpropyl)-amino]-sulfonyl]-]",10.6%

# Same assay, conditions: Homo sapiens; 10 μM compound; ECV-304 NF-κB.βlaZ cells stimulated with 10 ng/mL TNF-α or 100 pg/mL IL-1β, 6 hours at 37° C.; inhibition of maximum blue/green ratio; read-out: Percent Inhibition at 10 μM
row,SMILES,inhibition at 10 µM
1,"COC(=O)NS(=O)(=O)Oc1c(C(C)C)cccc1C(C)C [Example 56, Carbamic acid, [[2,6-bis(1-methylethyl)phenoxy]sulfonyl]-, methyl ester]",< 10%
2,"CCCCCCOS(=O)(=O)NC(=O)Oc1c(C(C)C)cccc1C(C)C [Example 57, Carbamic acid, [(hexyloxy)sulfonyl]-, 2,6-bis(1-methylethyl)phenyl ester]",20.4%
3,"CC(C)c1cccc(C(C)C)c1OC(=O)NS(=O)(=O)N1CCOCC1 [Example 58, Carbamic acid, (4-morpholinylsulfonyl)-, 2,6-bis(1-methylethyl)phenyl ester]",< 10%
4,"CC(C)c1cccc(C(C)C)c1OC(=O)NS(=O)(=O)N1CCCCC1 [Example 59, Carbamic acid, (1-piperidinylsulfonyl)-, 2,6-bis(1-methylethyl)phenyl ester]",< 10%
5,"CC(C)c1cccc(C(C)C)c1OC(=O)NS(=O)(=O)N(C(C)C)C(C)C [Example 62, Carbamic acid, [[bis(1-methylethyl)amino]sulfonyl]-, 2,6-bis(1-methylethyl)-phenyl ester]",< 10%
6,"CC(C)c1cccc(C(C)C)c1OC(=O)NS(=O)(=O)NC(c1ccccc1)C(C)C (stereo not drawn) [Example 65, Carbamic acid, [[((1-methylethyl)phenylmethyl)amino]sulfonyl]-, 2,6-bis(1-methylethyl)phenyl ester]",16.4%
7,"CC(C)c1cccc(C(C)C)c1OC(=O)NS(=O)(=O)N1CCCC1 [Example 66, Carbamic acid, (1-pyrrolidinylsulfonyl)-, 2,6-bis(1-methylethyl)phenyl ester]",< 10%
8,"CCCCCCNS(=O)(=O)NC(=O)Oc1c(C(C)C)cccc1C(C)C [Example 67, Carbamic acid, [(hexylamino)sulfonyl]-, 2,6-bis(1-methylethyl)phenyl ester]",13.8%
9,"CC(C)c1cccc(C(C)C)c1OC(=O)NS(=O)(=O)N1CCc2ccccc21 [Example 72, Carbamic acid, [(2,3-dihydro-1H-indol-1-yl)sulfonyl]-, 2,6-bis(1-methylethyl)-phenyl ester]",14.1%
